“And” between values parts separate entries of the source, which are not always exact repeats. Equal entries are not always repeated. Where two headings read alike, the source gives them in different places. Starred links: 1 amine or outer side, 2 acyl side, 3 side chain; linkers in the order of their positions; H or OH if unused. Non-standard residues stand in square brackets, D forms with d. Residues, ends and D or L forms follow the SMILES beside them. X3 = O=C([C@H](N[*:1])C12CC3CC(CC(C3)C1)C2)[*:2]; Phe(4-NH2) = Nc1ccc(C[C@H](N)C(=O)O)cc1; 1Nal = N[C@@H](Cc1cccc2ccccc12)C(=O)O; 2Nal = N[C@@H](Cc1ccc2ccccc2c1)C(=O)O; Phe(2-F) = N[C@@H](Cc1ccccc1F)C(=O)O; X2 = CCC(CC)[C@@H](N[*:1])C(=O)[*:2]; 2Thi = N[C@@H](Cc1cccs1)C(=O)O; Cha = N[C@@H](CC1CCCCC1)C(=O)O; Orn = NCCC[C@H](N)C(=O)O
Columns and labels:
[1] = target: T1, human urinary kallikrein (HUK) (Homo sapiens, UniProt P06870); experiment: Inhibition of human urinary (tissue) kallikrein (KI); assay type: biochemical
T1 construct: Human urinary kallikrein (HUK) was purified from human urine; from tissue
T1 sequence (P06870 25-262): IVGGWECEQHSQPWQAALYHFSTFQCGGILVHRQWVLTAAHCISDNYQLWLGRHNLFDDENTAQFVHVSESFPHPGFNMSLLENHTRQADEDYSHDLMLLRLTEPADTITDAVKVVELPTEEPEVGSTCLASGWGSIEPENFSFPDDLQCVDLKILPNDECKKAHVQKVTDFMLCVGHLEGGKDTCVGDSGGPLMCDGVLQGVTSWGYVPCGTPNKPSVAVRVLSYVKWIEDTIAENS
Description: Human urinary kallikrein (HUK) was purified from human urine. Briefly, urine was subjected to ultrafiltration to concentrate the protein components which were applied to approtinin-CH-Sepharose affinity columns. Active fractions from these columns were next applied to Sephadex G-100 gel filtration and collected as fractions. The pH of each fraction was determined immediately upon elution, and the fraction was neutralized by addition of 2.0 ml of 2M Tris-HCL buffer, pH 8.0. Porcine pancreatic 24-kallikrein (PPK), at 50 units/mg protein; 1.0 units hydrolyses 1.0 μM BAEE (benzoyl -L-arginine ethyl ester) to N-a-benzoyl-L-arginine/minute at pH 8.7 at 25° C., was purchased from Sigma Chemical Company (St. Louis, Mo.). […] All other enzymes were purchased from Sigma Chemical Company (St. Louis, Mo.).
Dixon plots were used for data reduction and for calculation of […].
(§1) Assay methods were based on the cleavage of chromogenic substrate S-2266 (D-Val-Leu-Arg-pNA) (Kabi; Charlotte, N.C.) by porcine pancreatic kallikrein (Sigma Chemical Company; St. Louis, Mo.) to yield an increase in absorbance at 405 nm. By changing the substrate and enzyme, the general method has been extended to measure the inhibition of human tissue kallikrein (HTK or human urinary kallikrein HUK), human plasma kallikrein (HPK), plasmin, and urokinase (UK). In all assays, the robot dilutes the inhibitor into a series of wells and adds substrate and buffer. Chromogenic reactions are started by the addition of enzyme. Changes in the absorbance at 405 nm in an array of wells were recorded. All manipulations were performed by the instrument from reservoirs containing substrate, inhibitor, diluent (water), buffer, or enzyme.

[2] = target: human plasma kallikrein (HPK) (Homo sapiens, UniProt P03952); experiment: Inhibition of human plasma kallikrein (KI); assay type: biochemical
Sequence of human plasma kallikrein (HPK) (P03952 20-638): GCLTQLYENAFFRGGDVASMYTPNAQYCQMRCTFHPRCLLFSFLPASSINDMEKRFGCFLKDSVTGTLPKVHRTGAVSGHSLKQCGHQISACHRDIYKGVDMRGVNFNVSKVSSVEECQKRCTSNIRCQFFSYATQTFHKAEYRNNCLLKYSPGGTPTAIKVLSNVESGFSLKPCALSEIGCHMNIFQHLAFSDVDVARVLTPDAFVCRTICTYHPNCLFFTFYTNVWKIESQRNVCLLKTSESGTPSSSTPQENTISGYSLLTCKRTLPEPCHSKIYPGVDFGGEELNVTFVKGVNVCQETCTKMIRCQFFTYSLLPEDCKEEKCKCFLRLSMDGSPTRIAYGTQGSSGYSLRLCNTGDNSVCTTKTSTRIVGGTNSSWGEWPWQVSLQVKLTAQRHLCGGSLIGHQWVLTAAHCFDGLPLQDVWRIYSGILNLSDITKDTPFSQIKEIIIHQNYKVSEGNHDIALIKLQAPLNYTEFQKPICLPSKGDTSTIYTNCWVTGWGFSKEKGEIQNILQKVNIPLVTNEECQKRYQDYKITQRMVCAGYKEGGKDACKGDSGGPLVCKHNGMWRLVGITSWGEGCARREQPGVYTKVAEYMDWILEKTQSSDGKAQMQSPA
From the text: as §1

[3] = target: porcine pancreatic kallikrein (PPK) (Sus scrofa, UniProt P00752); experiment: Inhibition of porcine pancreatic kallikrein, cleavage of chromogenic substrate S-2266 (KI); assay type: biochemical
Sequence of porcine pancreatic kallikrein (PPK) (P00752 8-87 limits assumed): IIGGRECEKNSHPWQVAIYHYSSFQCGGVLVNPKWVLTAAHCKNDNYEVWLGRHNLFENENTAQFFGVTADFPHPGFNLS
Sequence of porcine pancreatic kallikrein (PPK) (P00752 95-246 limits assumed): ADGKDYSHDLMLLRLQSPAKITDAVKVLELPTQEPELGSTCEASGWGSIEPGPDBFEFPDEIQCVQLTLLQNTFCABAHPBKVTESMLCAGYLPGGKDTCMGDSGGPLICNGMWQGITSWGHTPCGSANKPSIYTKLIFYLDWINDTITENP

urokinase (UK) = target: T2, urokinase (UK) (Homo sapiens, UniProt P00749); experiment: Inhibition of urokinase (KI); assay type: biochemical; conditions: Table 7; read-out: K1 UK
T2 construct: purchased Sigma Chemical Company (St. Louis, Mo.)
From the text: as §1

[4] = Measured lipophilicity (KO/W); assay type: physicochemical; conditions: Table 2, measured lipophilicity, change relative to Gly analog
From the text: Listed in Table 2 are KI values along with changes in volume (ΔV), measured lipophilicity (ΔKO/W), and calculated lipophilicity (ΔCLOGP). Some of the substrates containing a D-amino acid residue at P3 are rapidly hydrolyzed by tissue kallikrein. To overcome this problem, a new method was also used to determine KI (see Example 6).

[5] = Table 4, Pro-X-Arg-Ser-Val-Gln, read-out: KI HUK
[6] = Table 4, Pro-X-Arg-Ser-Val-Gln, read-out: KI HPK
[7] = Table 4, Pro-X-Arg-Ser-Val-Gln, read-out: KI PPK
[8] = Table 7, in mM, read-out: K1 HPK
[9] = Table 7, in mM, read-out: K1 PPK

Row | Molecule | Ki [1, 5] [µM] | Ki [2, 6] [mM] | Ki [3, 7] [mM] | Ki (urokinase (UK)) [µM] | Ki [2, 8] [mM] | further results
1 | CC(C)[C@H](NC(=O)[C@H](CC(N)=O)NC(=O)[C@H](CCCNC(=N)N)NC(=O)[C@H](Cc1ccccc1)NC(=O)[C@@H]1CCCN1)C(=O)N[C@@H](CCC(N)=O)C(N)=O [Asn] (H-PFRNVQ-NH2) | – | – | – | – | – | Ki ([1]; Table 5, Pro-Phe-Arg-X-Val-Gln, read-out: KI HUK): 99 µM; Ki ([2]; Table 5, Pro-Phe-Arg-X-Val-Gln, read-out: KI HPK): 0.244 mM; Ki ([3]; Table 5, Pro-Phe-Arg-X-Val-Gln, read-out: KI PPK): 0.058 mM and 0.099 mM and 0.067 mM; Ki ([3]; Table 5, values in [] : Dithiothreitol, read-out: KI PPK): 0.033 mM
2 | CC(C)[C@H](NC(=O)[C@H](CO)NC(=O)[C@H](CCCNC(=N)N)NC(=O)[C@H](Cc1ccccc1F)NC(=O)[C@@H]1CCCN1)C(=O)N[C@@H](CCC(N)=O)C(N)=O [KCH-1] (H-P[Phe(2-F)]RSVQ-NH2) | 151 | 0.472 | 0.124 | – | – | –
3 | CC(C)[C@H](NC(=O)[C@H](CO)NC(=O)[C@H](CCCNC(=N)N)NC(=O)[C@H](Cc1cccs1)NC(=O)[C@@H]1CCCN1)C(=O)N[C@@H](CCC(N)=O)C(N)=O [KCH-4] (H-P[2Thi]RSVQ-NH2) | 249 | 0.497 | 0.109 | – | – | –
4 | CC(C)[C@H](NC(=O)[C@H](CO)NC(=O)[C@H](CCCNC(=N)N)NC(=O)[C@H](Cc1ccc2ccccc2c1)NC(=O)[C@@H]1CCCN1)C(=O)N[C@@H](CCC(N)=O)C(N)=O [KCH-6] (H-P[2Nal]RSVQ-NH2) | 114 | 0.665 | 0.133 | – | – | –
5 | CC(C)[C@H](NC(=O)[C@H](CO)NC(=O)[C@H](CCCNC(=N)N)NC(=O)[C@H](Cc1cccc2ccccc12)NC(=O)[C@@H]1CCCN1)C(=O)N[C@@H](CCC(N)=O)C(N)=O [KCH-7] (H-P[1Nal]RSVQ-NH2) | 41 | 0.516 | 0.13 | – | – | –
6 | CC(C)[C@H](NC(=O)[C@H](CO)NC(=O)[C@H](CCCNC(=N)N)NC(=O)[C@H](CC1CCCCC1)NC(=O)[C@@H]1CCCN1)C(=O)N[C@@H](CCC(N)=O)C(N)=O [KCH-10] (H-P[Cha]RSVQ-NH2) | 92 | 0.813 | 0.085 | – | – | –
7 | CC(C)[C@H](NC(=O)[C@H](CO)NC(=O)[C@H](CCCCN)NC(=O)[C@H](Cc1ccccc1)NC(=O)[C@@H]1CCCN1)C(=O)N[C@@H](CCC(N)=O)C(N)=O [KIDZ-2, Pro-Phe-Lys-Ser-Val-Gln] (H-PFKSVQ-NH2) | – | – | – | > 20000 | – | Ki ([2]; Table 7, read-out: K1 HPK): 2.5 mM; Ki ([3]; Table 7, read-out: K1 PPK): 0.294 mM
8 | CC(C)[C@H](NC(=O)[C@H](CO)NC(=O)[C@H](CCCN)NC(=O)[C@H](Cc1ccccc1)NC(=O)[C@@H]1CCCN1)C(=O)N[C@@H](CCC(N)=O)C(N)=O [KIDZ-3, Pro-Phe-Orn-Ser-Val-Gln] (H-PF[Orn]SVQ-NH2) | – | – | – | > 20000 | > 5 | Ki [3, 9]: > 5 mM
9 | CC(C)[C@H](NC(=O)[C@H](CO)NC(=O)[C@H](Cc1ccc(N)cc1)NC(=O)[C@H](Cc1ccccc1)NC(=O)[C@@H]1CCCN1)C(=O)N[C@@H](CCC(N)=O)C(N)=O [KIDZ-6, Pro-Phe-Aph-Ser-Val-Gla] (H-PF[Phe(4-NH2)]SVQ-NH2) | – | – | – | > 20000 | > 10 | Ki ([1]; Table 7, read-out: K1 HUK): 21 µM; Ki ([1]; text b391, read-out: HUK KI): < 50 µM; Ki ([3]; Table 7, read-out: K1 PPK): 0.036 mM; Ki ([3]; text b391, read-out: PPK KI): < 0.05 mM
10 | CC(C)[C@H](NC(=O)[C@H](CO)NC(=O)[C@H](Cc1c[nH]cn1)NC(=O)[C@H](Cc1ccccc1)NC(=O)[C@@H]1CCCN1)C(=O)N[C@@H](CCC(N)=O)C(N)=O [KIDZ-12, Pro-Phe-His-Ser-Val-Gln] (H-PFHSVQ-NH2) | – | – | – | > 20000 | > 20 | Ki [3, 9]: > 1 mM
11 | CSCC[C@H](NC(=O)[C@H](Cc1ccccc1)NC(=O)[C@@H]1CCCN1)C(=O)N[C@@H](CO)C(=O)N[C@H](C(=O)N[C@@H](CCC(N)=O)C(N)=O)C(C)C [KIDZ-13, Pro-Phe-Met-Ser-Val-Gln] (H-PFMSVQ-NH2) | – | – | – | > 20000 | > 20 | Ki [3, 9]: > 4 mM
12 | CC(C)[C@H](NC(=O)[C@H](CO)NC(=O)[C@H](CCCNC(=N)N)NC(=O)[C@@H](NC(=O)[C@@H]1CCCN1)[C@@H](C)O)C(=O)N[C@@H](CCC(N)=O)C(N)=O [KIDZ-14, Pro-Thr-Arg-Ser-Val-Gln] (H-PTRSVQ-NH2) | – | – | – | > 20000 | – | Ki ([3]; Table 7, read-out: K1 PPK): 0.4 to 0.8 mM
13 | CCC(CC)[C@@H](N)C(=O)N[C@@H](Cc1ccccc1)C(=O)N[C@@H](CCCNC(=N)N)C(=O)N[C@@H](CO)C(=O)N[C@H](C(=O)N[C@@H](CCC(N)=O)C(N)=O)C(C)C [KKI-87, [D-Ile(4Me)]-Phe-Arg-Ser-Val-Gln] (H-[X2]FRSVQ-NH2; N-terminus assumed) | – | – | – | – | – | ΔLog KO/W [4]: 1.11
14 | CC(C)[C@H](NC(=O)[C@H](CO)NC(=O)[C@H](CCCNC(=N)N)NC(=O)[C@H](Cc1ccccc1)NC(=O)[C@H](N)C12CC3CC(CC(C3)C1)C2)C(=O)N[C@@H](CCC(N)=O)C(N)=O [KKI-88, [D-Adg]-Phe-Arg-Ser-Val-Gln] (H-[X3]FRSVQ-NH2; N-terminus assumed) | – | – | – | – | – | ΔLog KO/W [4]: 1.88
15 | N=C(N)NCCC[C@H](NC(=O)[C@H](CO)NC(=O)[C@H](CO)NC(=O)[C@H](CCCNC(=N)N)NC(=O)[C@H](Cc1ccccc1)NC(=O)[C@@H]1CCCN1)C(N)=O [Pro-Phe-Arg-Ser-Ser-Arg] (H-PFRSSR-NH2) | – | – | – | – | – | Ki ([1]; Table 6, first HUK column, read-out: KI HUK): 54 µM; Ki ([2]; Table 6, HUK, read-out: KI HUK): 0.49 mM; Ki ([3]; Table 6, read-out: KI PPK): 0.06 mM
16 | Pro-Map-Aph-Ser-Val-Gln [KIDZ-15] | – | – | – | > 20000 | > 20 | selectivity for tissue kallikrein over plasma kallikrein or urokinase ([3]; Table 7): selectivity for tissue kallikrein over plasma kallikrein or urokinase; Ki ([3]; Table 7, read-out: K1 PPK): 0.11 mM

— patent US5464820A, “Specific inhibitors of tissue kallikrein” (priority 1993, dated 1995)
